Assay: Single-dose mean plasma concentration profile of […] XR 20 mg (FIG. 1)
Type: in vivo
Details: human, oral, […] XR 20 mg single dose, mean over about 20 patients
Experimental: See, e.g., Fundamentals of Clinical Pharmacokinetics. J. G. Wagner, Drug Intelligence Publications, Inc., Hamilton, Ill., 1975; Guidance for Industry, Bioavailability and Bioequivalence Studies for Orally Administered Drug Products-General Considerations, FDA, CDER. October 2000.
Individual patients were treated with […] XR®, 20 mg. Subjects received either one single dose administered with food or one single dose administered following a 10-hour overnight fast through continued fast 3.5 hours post dosing. The mean plasma concentration profile of FIG. 1 was obtained from averaging such individuals' curves.

`C[C@H](N)Cc1ccccc1` [d-amphetamine] gave a Cmax of 28 ng/mL, a Tmax of 7.1 h and an AUC (read-out: AUC (time zero to infinity)) of 557 ng·h/mL.
